What was measured:
[1] = biological target: EGFR (Homo sapiens, UniProt P00533); experiment: Biochemical kinase selectivity: IC50 determination of EGFR; settings: for IC50: TR-FRET, 20 μM ATP; for Fold of EGFR/Btk: ratio of IC50 values
[2] = biological target: T1, Tec (Homo sapiens, UniProt P42680); experiment: Biochemical kinase selectivity: IC50 determination of Tec; settings: for IC50: TR-FRET, 280 μM ATP; for Fold of Tec/Btk: ratio of IC50 values
T1 sequence (P42680 1-631): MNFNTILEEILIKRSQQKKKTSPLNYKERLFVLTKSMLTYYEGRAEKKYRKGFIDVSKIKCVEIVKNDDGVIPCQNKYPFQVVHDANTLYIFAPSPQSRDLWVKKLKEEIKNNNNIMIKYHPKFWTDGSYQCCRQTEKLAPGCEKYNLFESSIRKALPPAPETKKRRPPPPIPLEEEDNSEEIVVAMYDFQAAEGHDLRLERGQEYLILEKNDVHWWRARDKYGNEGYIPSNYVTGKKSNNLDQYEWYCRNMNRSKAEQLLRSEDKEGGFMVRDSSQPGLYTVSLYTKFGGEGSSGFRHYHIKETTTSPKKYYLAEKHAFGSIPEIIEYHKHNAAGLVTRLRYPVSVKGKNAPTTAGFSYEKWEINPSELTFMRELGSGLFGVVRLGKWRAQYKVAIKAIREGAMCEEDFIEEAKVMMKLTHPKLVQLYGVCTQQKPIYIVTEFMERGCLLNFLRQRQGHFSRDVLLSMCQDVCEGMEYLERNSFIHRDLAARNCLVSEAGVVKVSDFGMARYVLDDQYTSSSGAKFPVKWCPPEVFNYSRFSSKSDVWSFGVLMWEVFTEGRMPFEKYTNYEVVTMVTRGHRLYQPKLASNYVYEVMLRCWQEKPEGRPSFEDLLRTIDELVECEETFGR

[3] = biological target: T2, Btk kinase (aa2-659, Carna Biosciences) (Homo sapiens, UniProt Q06187); experiment: Btk kinase enzymatic assay (TR-FRET); type: biochemical; settings: for IC50: TR-FRET, 30 μM ATP, compound incubated with kinase 60 minutes
T2 construct: purchased Carna Biosciences
T2 sequence (Q06187 2-659): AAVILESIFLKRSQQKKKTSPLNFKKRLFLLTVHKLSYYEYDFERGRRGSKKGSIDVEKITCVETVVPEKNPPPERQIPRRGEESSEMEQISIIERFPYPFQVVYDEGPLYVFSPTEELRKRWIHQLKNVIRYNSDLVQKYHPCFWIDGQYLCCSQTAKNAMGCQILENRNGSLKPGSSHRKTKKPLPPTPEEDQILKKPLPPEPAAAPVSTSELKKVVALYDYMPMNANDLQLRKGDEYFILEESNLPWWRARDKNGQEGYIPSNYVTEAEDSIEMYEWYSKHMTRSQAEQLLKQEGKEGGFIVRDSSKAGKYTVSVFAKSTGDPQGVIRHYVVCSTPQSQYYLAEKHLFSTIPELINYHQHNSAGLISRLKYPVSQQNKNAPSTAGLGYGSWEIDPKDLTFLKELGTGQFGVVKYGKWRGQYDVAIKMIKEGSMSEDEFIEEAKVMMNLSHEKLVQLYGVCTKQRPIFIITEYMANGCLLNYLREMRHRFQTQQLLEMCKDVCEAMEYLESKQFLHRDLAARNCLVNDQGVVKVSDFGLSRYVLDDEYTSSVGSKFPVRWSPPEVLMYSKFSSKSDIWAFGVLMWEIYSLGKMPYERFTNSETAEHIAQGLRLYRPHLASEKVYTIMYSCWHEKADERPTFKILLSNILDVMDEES

[4] = biological target: T3, phosphorylated Btk at Tyr223 (Homo sapiens, UniProt Q06187); experiment: Btk pY223 cellular assay (HTRF, Ramos cells); type: cell-based; settings: compound 3 hours, pervanadate or Na3VO4 stimulation, read-out: IC50 (nM) in cell Btk pY223
T3 construct: determine the endogenous levels of phosphorylated Btk at Tyr223; endogenous in cells; host or cells: Ramos cells (CRL-1596, ATCC)
T3 sequence (Q06187 whole entry): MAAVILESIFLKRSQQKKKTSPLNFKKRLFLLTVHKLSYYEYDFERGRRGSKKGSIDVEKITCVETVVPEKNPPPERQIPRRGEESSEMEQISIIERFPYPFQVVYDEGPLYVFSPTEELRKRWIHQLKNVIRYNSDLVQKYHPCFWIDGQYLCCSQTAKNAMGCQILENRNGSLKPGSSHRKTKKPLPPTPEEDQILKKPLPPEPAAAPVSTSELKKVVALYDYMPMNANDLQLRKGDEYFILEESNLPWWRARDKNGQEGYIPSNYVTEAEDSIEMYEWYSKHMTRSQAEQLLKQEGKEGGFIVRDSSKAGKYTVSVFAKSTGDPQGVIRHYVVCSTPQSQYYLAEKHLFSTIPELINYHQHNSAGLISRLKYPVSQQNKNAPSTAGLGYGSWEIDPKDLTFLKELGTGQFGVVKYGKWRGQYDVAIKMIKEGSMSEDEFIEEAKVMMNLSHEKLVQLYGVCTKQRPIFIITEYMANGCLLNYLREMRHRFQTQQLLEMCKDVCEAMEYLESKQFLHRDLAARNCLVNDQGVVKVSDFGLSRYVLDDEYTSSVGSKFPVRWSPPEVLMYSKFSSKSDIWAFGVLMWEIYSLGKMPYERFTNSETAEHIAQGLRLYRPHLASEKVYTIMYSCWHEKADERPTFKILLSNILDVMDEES
Method: Btk pY223 cellular assay is an HTRF based assay intended to determine the endogenous levels of phosphorylated Btk at Tyr223.
Briefly, Ramos cells were serum starved in 0.5% FBS-containing RPMI1640 overnight. The cells were then incubated with interested compounds at various concentrations in a CO2 incubator for 3 hours. After the incubation, cells were stimulated with 1 mM pervanadate (PV) or Na3VO4 (OV) for 20 min. Then, the cells were collected and lysed with 1× lysis buffer at RT for 10 min (4× lysis buffer supplied in the kit). 1× antibody mix was prepared by diluting anti-Btk-d2 and anti-pBtk-K in detection buffer (supplied in the kit). […] After mixing gently and spinning briefly, the plate was sealed up and kept in dark at RT for 18 hours. […] IC50 values were calculated with GraphPad Prism software using the sigmoidal dose-response function.

Sequence of EGFR (P00533 25-1210): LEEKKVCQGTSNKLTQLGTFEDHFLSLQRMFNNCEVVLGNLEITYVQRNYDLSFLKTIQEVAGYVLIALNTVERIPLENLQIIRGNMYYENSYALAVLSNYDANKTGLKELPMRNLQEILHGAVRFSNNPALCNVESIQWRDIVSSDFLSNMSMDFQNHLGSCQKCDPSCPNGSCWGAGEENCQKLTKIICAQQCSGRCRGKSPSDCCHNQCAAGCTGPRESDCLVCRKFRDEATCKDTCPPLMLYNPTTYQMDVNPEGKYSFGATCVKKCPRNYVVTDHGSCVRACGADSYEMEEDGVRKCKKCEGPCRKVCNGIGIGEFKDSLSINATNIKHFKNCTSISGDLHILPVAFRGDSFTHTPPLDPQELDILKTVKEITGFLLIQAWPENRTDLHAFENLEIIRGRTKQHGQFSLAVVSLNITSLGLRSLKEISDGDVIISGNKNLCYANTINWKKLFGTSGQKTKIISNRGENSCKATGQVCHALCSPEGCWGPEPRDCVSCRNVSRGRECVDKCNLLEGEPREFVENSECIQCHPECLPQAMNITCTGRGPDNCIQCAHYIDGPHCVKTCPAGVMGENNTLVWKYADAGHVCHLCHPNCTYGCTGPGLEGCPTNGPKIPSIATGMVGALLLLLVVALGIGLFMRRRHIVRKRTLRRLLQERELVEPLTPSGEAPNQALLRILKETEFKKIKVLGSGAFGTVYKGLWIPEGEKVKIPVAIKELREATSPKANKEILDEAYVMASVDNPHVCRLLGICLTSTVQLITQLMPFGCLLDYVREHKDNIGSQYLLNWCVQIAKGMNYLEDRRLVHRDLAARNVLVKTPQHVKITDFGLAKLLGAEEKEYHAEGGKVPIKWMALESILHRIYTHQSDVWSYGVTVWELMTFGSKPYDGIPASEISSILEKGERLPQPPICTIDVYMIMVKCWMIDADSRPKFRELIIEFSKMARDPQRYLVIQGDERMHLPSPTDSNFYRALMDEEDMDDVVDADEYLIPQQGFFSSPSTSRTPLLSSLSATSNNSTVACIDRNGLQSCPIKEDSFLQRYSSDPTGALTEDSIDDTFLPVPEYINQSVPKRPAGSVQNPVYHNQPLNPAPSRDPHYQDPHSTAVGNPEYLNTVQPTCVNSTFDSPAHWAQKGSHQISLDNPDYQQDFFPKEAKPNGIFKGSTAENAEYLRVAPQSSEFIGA

C=CC(=O)Nc1ccccc1C1CCNc2c(C(N)=O)c(-c3cc(F)c(F)c(Cl)c3)nn21 (stereo not shown) [Example 158, reference compound] was tested, and the IC50 [1] was 0.49 nM, the “Fold of EGFR/Btk” value [1] was 0.2 fold and the IC50 [2] was 56 nM. For the same compound, the “Fold of Tec/Btk” value [2] was 19 fold.
For C=CC(=O)N1CCC(C2CCNc3c(C(N)=O)c(-c4cc(OC)c(C5CC5)c(OCC)c4)nn32)CC1 (stereo not shown) [Example A33, 7-(1-acryloylpiperidin-4-yl)-2-(4-cyclopropyl-3-ethoxy-5-methoxyphenyl)-4,5,6,7-tetrahydropyrazolo[1,5-a]pyrimidine-3-carboxamide], the “affinity / inhibitory activity for Btk (in words)” value (“affinity / inhibitory activity” for short) [3] was “high affinity for Btk”, the IC50 [3] was 2.7 nM and the IC50 [1] was 9390 nM. For the same compound, the “Fold of EGFR/Btk” value [1] was 3479 fold, the IC50 [2] was 499 nM and the “Fold of Tec/Btk” value [2] was 185 fold. The IC50 [4] was 42.9 nM.
With C=CC(=O)N1CCC(C2CCNc3c(C(N)=O)c(-c4cc(Cl)c(C)c(Cl)c4)nn32)CC1 (stereo not shown) [Example A7, 7-(1-acryloylpiperidin-4-yl)-2-(3,5-dichloro-4-methylphenyl)-4,5,6,7-tetrahydropyrazolo[1,5-a]pyrimidine-3-carboxamide] the IC50 [3] was 4.1 nM, the IC50 [1] was 1190 nM and the “Fold of EGFR/Btk” value [1] was 289 fold. The IC50 [2] was 254 nM, the “Fold of Tec/Btk” value [2] was 62 fold and the IC50 [4] was 148 nM.
C=CC(=O)N1CCC(C2CCNc3c(C(N)=O)c(-c4cc(OC)c(C5CC5)c(OC(C)C)c4)nn32)CC1 (stereo not shown) [Example A45, 7-(1-acryloylpiperidin-4-yl)-2-(4-cyclopropyl-3-isopropoxy-5-methoxyphenyl)-4,5,6,7-tetrahydropyrazolo[1,5-a]pyrimidine-3-carboxamide] was tested, and the IC50 [3] was 4.4 nM, the IC50 [1] was over 10000 nM and the IC50 [2] was 362 nM. For the same compound, the “Fold of Tec/Btk” value [2] was 82 fold.
C#CC(=O)N1CCC(C2CCNc3c(C(N)=O)c(-c4cc(OC)c(C)c(OC)c4)nn32)CC1 (stereo not shown) [Example A50, 2-(3,5-dimethoxy-4-methylphenyl)-7-(1-propioloylpiperidin-4-yl)-4,5,6,7-tetrahydropyrazolo[1,5-a]pyrimidine-3-carboxamide] was tested, and the IC50 [3] was 0.34 nM, the IC50 [1] was 599 nM and the “Fold of EGFR/Btk” value [1] was 1762 fold. The IC50 [2] was 3.2 nM, the “Fold of Tec/Btk” value [2] was 9.4 fold and the IC50 [4] was 12.3 nM.
C=CC(=O)N1CCC(C2CCNc3c(C(N)=O)c(-c4cc(OC)c(C)c(OCC)c4)nn32)CC1 (stereo not shown) [Example A12, 7-(1-acryloylpiperidin-4-yl)-2-(3-ethoxy-5-methoxy-4-methylphenyl)-4,5,6,7-tetrahydropyrazolo[1,5-a]pyrimidine-3-carboxamide] gave an IC50 [3] of 4.7 nM, an IC50 [1] of over 10000 nM and an IC50 [2] of 289 nM. The “Fold of Tec/Btk” value [2] was 61 fold and the IC50 [4] was 37.3 nM.
In the case of C=CC(=O)N1CCC(C2CCNc3c(C(N)=O)c(-c4cc(OC)c(C(C)c5ccccc5)c(OC)c4)nn32)CC1 (stereo not shown) [Example A44, 7-(1-acryloylpiperidin-4-yl)-2-(3,5-dimethoxy-4-(1-phenylethyl)phenyl)-4,5,6,7-tetrahydropyrazolo[1,5-a]pyrimidine-3-carboxamide], the IC50 [3] is reported as 4.9 nM, the IC50 [1] is reported as 3170 nM and the “Fold of EGFR/Btk” value [1] is reported as 647 fold. The IC50 [2] was 35 nM and the “Fold of Tec/Btk” value [2] was 7.1 fold.
For C=CC(=O)N1CC(C2CCNc3c(C(N)=O)c(-c4cc(OC)c(C)c(OC)c4)nn32)C1 (stereo not shown) [Example B3, 7-(1-acryloylazetidin-3-yl)-2-(3,5-dimethoxy-4-methylphenyl)-4,5,6,7-tetrahydropyrazolo[1,5-a]pyrimidine-3-carboxamide], the IC50 [3] was 5.9 nM, the IC50 [1] was 1910 nM and the “Fold of EGFR/Btk” value [1] was 324 fold. For the same compound, the IC50 [2] was 157 nM, the “Fold of Tec/Btk” value [2] was 27 fold and the IC50 [4] was 93.1 nM.
For C=CC(=O)N1CCC(C2CCNc3c(C(N)=O)c(-c4cc(OC)c(C(C)O)c(OC)c4)nn32)CC1 (stereo not shown) [Example A46, 7-(1-acryloylpiperidin-4-yl)-2-(4-(1-hydroxyethyl)-3,5-dimethoxyphenyl)-4,5,6,7-tetrahydropyrazolo[1,5-a]pyrimidine-3-carboxamide], the “affinity / inhibitory activity” value [3] was “high affinity for Btk”, the IC50 [3] was 5.9 nM and the IC50 [1] was 3810 nM. For the same compound, the “Fold of EGFR/Btk” value [1] was 646 fold, the IC50 [2] was 974 nM and the “Fold of Tec/Btk” value [2] was 165 fold. It also gave an IC50 [4] of 258 nM.
With C=CC(=O)N1CCC(C2CCNc3c(C(N)=O)c(-c4cc(OC)c(C5CCCCC5)c(OC)c4)nn32)CC1 (stereo not shown) [Example A39, 7-(1-acryloylpiperidin-4-yl)-2-(4-cyclohexyl-3,5-dimethoxyphenyl)-4,5,6,7-tetrahydropyrazolo[1,5-a]pyrimidine-3-carboxamide] the IC50 [3] was 6.8 nM, the IC50 [1] was 6080 nM and the “Fold of EGFR/Btk” value [1] was 894 fold. The IC50 [2] was 102 nM and the “Fold of Tec/Btk” value [2] was 15 fold.
With C=CC(=O)N1CCC(C2CCNc3c(C(N)=O)c(-c4cc(OC)c(C(F)(F)F)c(OC)c4)nn32)CC1 (stereo not shown) [Example A38, 7-(1-acryloylpiperidin-4-yl)-2-(3,5-dimethoxy-4-(trifluoromethyl)phenyl)-4,5,6,7-tetrahydropyrazolo[1,5-a]pyrimidine-3-carboxamide] the IC50 [3] was 2.8 nM, the IC50 [1] was 2250 nM and the “Fold of EGFR/Btk” value [1] was 803 fold. The IC50 [2] was 264 nM, the “Fold of Tec/Btk” value [2] was 94 fold and the IC50 [4] was 36.7 nM.
With C=CC(=O)N1CCC(C2CCNc3c(C(N)=O)c(-c4cc(C)c(Br)c(C)c4)nn32)CC1 (stereo not shown) [Example A20, 7-(1-acryloylpiperidin-4-yl)-2-(4-bromo-3,5-dimethylphenyl)-4,5,6,7-tetrahydropyrazolo[1,5-a]pyrimidine-3-carboxamide] the “affinity / inhibitory activity” value [3] was “high affinity for Btk”, the IC50 [3] was 3.3 nM and the IC50 [1] was 496 nM. For the same compound, the “Fold of EGFR/Btk” value [1] was 150 fold, the IC50 [2] was 352 nM and the “Fold of Tec/Btk” value [2] was 107 fold. For the same compound, the IC50 [4] was 143 nM.
C=CC(=O)N1CCC(C2CCNc3c(C(N)=O)c(-c4cc(Cl)c(C5CC5)c(OC)c4)nn32)CC1 (stereo not shown) [Example A36, 7-(1-acryloylpiperidin-4-yl)-2-(3-chloro-4-cyclopropyl-5-methoxyphenyl)-4,5,6,7-tetrahydropyrazolo[1,5-a]pyrimidine-3-carboxamide] was tested, and the “affinity / inhibitory activity” value [3] was “high affinity for Btk”, the IC50 [3] was 1.1 nM and the IC50 [1] was 2570 nM. The “Fold of EGFR/Btk” value [1] was 2339 fold, the IC50 [2] was 137 nM and the “Fold of Tec/Btk” value [2] was 125 fold. The IC50 [4] was 50.5 nM.
For C=CC(=O)N1CCC(C2CCNc3c(C(N)=O)c(-c4cc(OC)c(CCc5ccccc5)c(OC)c4)nn32)CC1 (stereo not shown) [Example A42, 7-(1-acryloylpiperidin-4-yl)-2-(3,5-dimethoxy-4-phenethylphenyl)-4,5,6,7-tetrahydropyrazolo[1,5-a]pyrimidine-3-carboxamide], the IC50 [3] was 3 nM, the IC50 [1] was 2000 nM and the “Fold of EGFR/Btk” value [1] was 668 fold. For the same compound, the IC50 [2] was 53 nM and the “Fold of Tec/Btk” value [2] was 18 fold.
For C=CC(=O)N1CCC(C2CCNc3c(C(N)=O)c(-c4ccc(C)c(OC)c4)nn32)CC1 (stereo not shown) [Example 174, reference compound], the “affinity / inhibitory activity” value [3] was “low affinity for Btk”, the IC50 [1] was 281 nM and the “Fold of EGFR/Btk” value [1] was 58.5 fold. The “selectivity of Btk over Tec (in words)” value [2] was “almost no selectivity against Tec”, the IC50 [2] was 64 nM and the “Fold of Tec/Btk” value [2] was 13 fold.
In the case of C=CC(=O)N1CCC(C2CCNc3c(C(N)=O)c(-c4cc(OC)c(-c5ccco5)c(OC)c4)nn32)CC1 (stereo not shown) [Example A19, 7-(1-acryloylpiperidin-4-yl)-2-(4-(furan-2-yl)-3,5-dimethoxyphenyl)-4,5,6,7-tetrahydropyrazolo[1,5-a]pyrimidine-3-carboxamide], the IC50 [3] is reported as 7.2 nM, the IC50 [1] is reported as over 10000 nM and the IC50 [2] is reported as 455 nM. For the same compound, the “Fold of Tec/Btk” value [2] was 63.2 fold.
In the case of C=CC(=O)N1CCC(C2CCNc3c(C(N)=O)c(-c4cc(Br)c(C)c(Br)c4)nn32)CC1 (stereo not shown) [Example A16, 7-(1-acryloylpiperidin-4-yl)-2-(3,5-dibromo-4-methylphenyl)-4,5,6,7-tetrahydropyrazolo[1,5-a]pyrimidine-3-carboxamide], the IC50 [3] is reported as 7.1 nM, the IC50 [1] is reported as 2370 nM and the “Fold of EGFR/Btk” value [1] is reported as 333 fold. The IC50 [2] was 556 nM and the “Fold of Tec/Btk” value [2] was 78 fold.
C=CC(=O)Nc1ccccc1C1CCNc2c(C(N)=O)c(-c3cc(Cl)c(OC)c(Cl)c3)nn21 (stereo not shown) [169^#] was tested, and the IC50 [1] was 0.54 nM, the IC50 [2] was 37 nM and the IC50 [4] was 28.2 nM.
With C=CC(=O)N1CCC(C2CCNc3c(C(N)=O)c(-c4cc(OC)c(C(=C)c5ccccc5)c(OC)c4)nn32)CC1 (stereo not shown) [Example A43, 7-(1-acryloylpiperidin-4-yl)-2-(3,5-dimethoxy-4-(1-phenylvinyl)phenyl)-4,5,6,7-tetrahydropyrazolo[1,5-a]pyrimidine-3-carboxamide] the IC50 [3] was 6.8 nM, the IC50 [1] was 6180 nM and the “Fold of EGFR/Btk” value [1] was 909 fold. The IC50 [2] was 39 nM and the “Fold of Tec/Btk” value [2] was 5.7 fold.

Reference: patent US20220298163A1, “BTK INHIBITORS WITH IMPROVED DUAL SELECTIVITY” (BEIGENE, LTD., priority 2017, published 2022)
